Laboratory results taken from patent US8183415B2, “Methods of synthesizing cinacalcet and salts thereof” (Amgen, Inc., priority 2007, dated 2012).
Where a name gives a salt, the structure may show the parent alone.

How the values were obtained:
calcium-sensing receptor [1] = target: T1, calcium-sensing receptor (Homo sapiens, UniProt P41180); settings: patients with parathyroid carcinoma; cited from earlier work
T1 construct: a calcium-sensing receptor on the cell surface of the parathyroid gland; from tissue; host or cells: parathyroid gland of patients (in vivo, clinical use)
T1 sequence (P41180 20-1078): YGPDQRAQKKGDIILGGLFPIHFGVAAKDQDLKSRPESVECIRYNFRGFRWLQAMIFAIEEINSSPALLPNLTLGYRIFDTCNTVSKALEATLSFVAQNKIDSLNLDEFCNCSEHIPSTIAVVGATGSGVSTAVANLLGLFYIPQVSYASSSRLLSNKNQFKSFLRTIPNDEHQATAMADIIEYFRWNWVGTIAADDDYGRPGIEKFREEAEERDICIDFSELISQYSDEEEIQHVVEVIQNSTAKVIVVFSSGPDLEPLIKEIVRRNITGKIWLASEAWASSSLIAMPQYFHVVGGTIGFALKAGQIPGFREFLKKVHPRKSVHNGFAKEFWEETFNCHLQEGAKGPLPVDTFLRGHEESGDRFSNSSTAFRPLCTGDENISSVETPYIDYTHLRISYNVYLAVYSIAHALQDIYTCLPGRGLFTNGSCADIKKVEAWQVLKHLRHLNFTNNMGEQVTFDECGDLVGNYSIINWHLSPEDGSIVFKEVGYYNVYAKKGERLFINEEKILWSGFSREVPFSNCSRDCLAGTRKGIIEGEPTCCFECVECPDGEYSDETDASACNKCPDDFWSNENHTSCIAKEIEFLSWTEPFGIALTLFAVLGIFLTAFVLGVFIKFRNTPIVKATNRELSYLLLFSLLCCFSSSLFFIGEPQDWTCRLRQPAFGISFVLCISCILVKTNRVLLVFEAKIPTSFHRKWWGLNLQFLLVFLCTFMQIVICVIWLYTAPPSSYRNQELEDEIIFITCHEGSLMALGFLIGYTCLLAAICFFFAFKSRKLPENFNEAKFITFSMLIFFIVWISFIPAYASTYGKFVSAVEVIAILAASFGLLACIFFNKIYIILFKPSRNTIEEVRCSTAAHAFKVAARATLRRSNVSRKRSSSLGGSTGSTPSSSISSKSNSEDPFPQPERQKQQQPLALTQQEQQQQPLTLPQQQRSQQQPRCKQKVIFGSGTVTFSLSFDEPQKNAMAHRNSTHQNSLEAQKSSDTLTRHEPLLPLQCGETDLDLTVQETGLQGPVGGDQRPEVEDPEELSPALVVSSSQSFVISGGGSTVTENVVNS

calcium-sensing receptor [2] = target: T1, calcium-sensing receptor; settings: patients with chronic kidney disease on dialysis with secondary hyperparathyroidism; cited from earlier work

## C[C@@H](NCCCc1cccc(C(F)(F)F)c1)c1cccc2ccccc12.Cl [Form III]
Variety of solvent systems and crystallization methods, XRPD
  thermodynamic stability of crystalline form: metastable form

## C[C@@H](NCCCc1cccc(C(F)(F)F)c1)c1cccc2ccccc12.Cl [Form II]
At room temperature
  stability of crystalline form: unstable

## C[C@@H](NCCCc1cccc(C(F)(F)F)c1)c1cccc2ccccc12 [Sensipar, N-[1-(R)-(−)-(1-naphthyl)ethyl]-3-[3-(trifluoromethyl)phenyl]-1-aminopropane hydrochloride]
calcium-sensing receptor [1]
  effect on calcium levels: reduce high levels of calcium
calcium-sensing receptor [2]
  therapeutic efficacy: therapeutically effective
